Results taken from US11420910B2, “Methods for low temperature fluorine-18 radiolabeling of biomolecules” (KATHOLIEKE UNIVERSITEIT LEUVEN, priority 2014, dated 2022).
“And” between values parts separate entries of the source, which are not always exact repeats. Equal values may be shown once. “Also recorded” adds a separate entry of the source.

Assays:
[1] = Stability tests in PBS (0.1 M, pH 7.4) at 37° C., Examples 29 and 33; type: physicochemical; conditions: for stability in PBS (in words): 37° C.; for % intact tracer: PBS 0.1M pH 7.4, 37° C.
Protocol: (§5) These mixtures were incubated at 37° C. and analysed by iTLC-SG at 10, 30, 60, 120, 180 and 240 min after the start of the incubation (N=3). Serum samples were denatured by addition of 50 μl of the serum solution to 50 μl of acetonitrile. The mixture was stirred and centrifuged (1300 g, 3 min). Finally the supernatant was analysed using iTLC-SG.

[2] = Stability tests of Al18F-complexes in PBS (0.1 M, pH 7) at 37° C., Example 26; type: physicochemical; conditions: PBS 0.1 M pH 7, 37° C.
Protocol: (§1) 400 μl of each purified [Al^18F]-complex solution was added to 1 mL of PBS and/or 1 mL of rat serum. […] Finally the supernatant was analysed using iTLC-SG.

[3] = Stability tests of Al18F-complexes in rat serum at 37° C., Example 26; type: in vitro ADME
Protocol: as §1

[4] = Biodistribution of Al18F-complexes and {Al18F}2+ in healthy male NMRI mice; type: in vivo; conditions: for uptake in blood / uptake in bone / uptake in intestines / uptake in kidneys / uptake in liver / uptake in urinary bladder: NMRI mice, tail vein
Protocol: (§2) Quantification of radioactivity during biodistribution studies was performed using an automated gamma counter equipped with a 3-inch NaI(TI) well crystal coupled to a multichannel analyzer, mounted in a sample changer (Perkin Elmer 1480 Wizard 3q). Counts were corrected for background radiation, physical decay and counter dead time.
(§3) The biodistribution of the [Al^18F]-L3 complex and {Al^18F}^2+ was determined in healthy male Naval Medical Research Institute (NMRI) mice (body weight: 30-40 g) at 10 and 60 min post injection (p.i.) (n=4/time point). Mice were injected with the [Al^18F]-L3 complex (about 1 MBq) or {Al^18F}^2+ (5.55 MBq) via a tail vein under anesthesia (2.5% isoflurane in O2 at 1 L/min flow rate) and sacrificed by decapitation at above specified time points. Blood and major organs were collected in tared tubes and weighed. The radioactivity in blood, organs and other body parts was counted using an automated γ-counter. For the calculation of total radioactivity in blood, bone and muscle, masses were assumed to be, respectively, 7, 12 and 40% of the total body mass.^20, 21
as §2, with “Nai(TI)” for “NaI(TI)”
as §3, with “[Al^18F]-L26” for “[Al^18F]-L3”, “(n=3/time point for 10 min p.i. and n=4/time point for 60 min p.i.).” for “(n=4/time point).”, “mass.^20,21” for “mass.^20, 21”

[5] = biological target: T1, PSMA (Mus musculus, UniProt O35409); assay: Biodistribution of PSMA tracers in mice with or without coadministration of 2-PMPA; type: in vivo
T1 construct: organs with reported high expression of PSMA such as kidney; from tissue; host or cells: living mice; kidney, spleen and other organs counted ex vivo
T1 sequence (O35409 whole entry): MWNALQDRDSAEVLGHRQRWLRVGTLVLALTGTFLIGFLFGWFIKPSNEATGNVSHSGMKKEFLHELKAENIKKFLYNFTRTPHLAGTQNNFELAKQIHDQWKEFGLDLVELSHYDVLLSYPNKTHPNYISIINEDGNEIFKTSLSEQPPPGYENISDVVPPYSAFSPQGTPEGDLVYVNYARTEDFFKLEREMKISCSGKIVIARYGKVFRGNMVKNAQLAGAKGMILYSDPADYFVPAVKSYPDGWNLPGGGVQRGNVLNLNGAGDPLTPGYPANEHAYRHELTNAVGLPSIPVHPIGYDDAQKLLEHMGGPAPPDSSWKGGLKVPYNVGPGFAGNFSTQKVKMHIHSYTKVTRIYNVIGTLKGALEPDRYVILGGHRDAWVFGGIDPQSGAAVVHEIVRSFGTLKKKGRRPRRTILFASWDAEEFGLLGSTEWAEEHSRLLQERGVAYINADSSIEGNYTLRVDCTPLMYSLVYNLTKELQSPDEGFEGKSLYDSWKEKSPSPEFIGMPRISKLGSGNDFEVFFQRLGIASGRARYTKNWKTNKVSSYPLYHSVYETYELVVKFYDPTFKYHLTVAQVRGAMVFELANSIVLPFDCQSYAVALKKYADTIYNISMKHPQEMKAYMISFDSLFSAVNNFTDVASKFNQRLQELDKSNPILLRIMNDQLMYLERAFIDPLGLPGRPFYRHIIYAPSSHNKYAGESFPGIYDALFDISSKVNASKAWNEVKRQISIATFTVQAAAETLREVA
Protocol: The compounds ^68Ga-HBED-CC-PSMA, Al^18F-L6-PSMA, Al^18F-L27-PSMA or Al^18F-NODA-MPAA-PSMA were injected via the tail vain (1-2 MBq) with or without coadministration of 2 mg/kg 2-PMPA. At 10 min or 60 min p.i. (N=4), the animals were sacrificed. Blood and major organs were collected in tarred tubes and weighed. The radioactivity was measured using an automated γ-counter and calculated as % ID and % ID/g.
as §2

[6] = Stability tests in rat serum at 37° C., Examples 29 and 33
Protocol: as §5

[7] = Stability tests of Al18F-complexes in different buffers ranging from pH 2 to 8 (room temperature, iTLC-SG); type: physicochemical; conditions: buffers pH 2 to 8, room temperature, 30 and 60 min
Protocol: (§4) 200 μl of the purified Al^18F-L3 solution was added to 1 mL of sodium phosphate buffer (0.1 M, pH 2), sodium phosphate buffer (0.1 M, pH 3), sodium acetate buffer (0.1 M, pH 4), sodium acetate buffer (0.1 M, pH 5), sodium acetate buffer (0.1 M, pH 6), PBS buffer (0.1 M, pH 7) or Tris-HCl buffer (0.1 M, pH 8). These mixtures were incubated at room temperature and analyzed by iTLC-SG at 30 and 60 min after the start of the incubation.
as §4, with “Al^18F-L26” for “Al^18F-L3”

For `O=C1CN2CC(=O)[O][Al-]([18F])([O]1)[O]C(=O)CN(Cc1ccccc1)C1CC=CCC12` (stereo not shown) [Al^18F-L30], the “stability in PBS (in words)” value [1] was “only moderate stability”.
In the case of `O=C1CN(Cc2ccccc2O)CCN2CC(=O)[O][Al-]([18F])([O]1)[O]c1ccccc1C2` (stereo not shown) [Al^18F-L2], the “stability in PBS (in words)” value [2] is reported as “do not seem to be stable”, the RCP ([2]; 120 min) is reported as 31% and the “stability in rat serum (in words)” value [3] is reported as “unstable in serum”. The RCP ([3]; 120 min) was 0%.
With `O=C1CN(Cc2ccccc2)CCN2CC(=O)[O][Al-]([18F])([O]1)[O]c1ccc(F)cc1C2` (stereo not shown) [Al^18F-L4] the “stability in PBS (in words)” value [2] was “comparable to that of Al^18F-NODA-benzyl up to 60 minutes”, the RCP ([2]; 120 min) was 85% and the RCP ([2]; 240 min) was 74%. For the same molecule, the “stability in rat serum (in words)” value [3] was “good stability in rat serum” and the RCP ([3]; 240 min) was 41%.
In the case of `O=C1CN2CCN(Cc3ccccc3)CC(=O)[O][Al-]([18F])([O]1)[O]C(=O)C2` [Al^18F-L1], the “stability in PBS (in words)” value [2] is reported as “do not seem to be stable”, the “stability in rat serum (in words)” value [3] is reported as “unstable in serum” and the RCP ([3]; 120 min) is reported as 0%.
With `O=C1CN(Cc2ccccc2)CCN(Cc2ccccn2)CC(=O)[O][Al]([18F])[O]1` [Al^18F-L7] the “stability in PBS (in words)” value [2] was “do not seem to be stable”.
Molecule `O=C1CN2CCN(CCN(Cc3ccccc3)CC2)CC(=O)[O][Al]([18F])[O]1` [Al^18F-NODA-benzyl, reference compound] has an RCP ([2]; 60 min) of 99%, an RCP ([2]; 120 min) of 98% and an RCP ([2]; 240 min) of 88%. For the same molecule, the RCP ([3]; 60 min) was 99%, the RCP ([3]; 120 min) was 97% and the RCP ([3]; 240 min) was 87%.
`[18F][Al+2]` [{Al^18F}^2+, reference compound] showed an uptake in blood ([4]; 10 min p.i.) of 5.0 % ID, an uptake in bone ([4]; 10 min p.i.) of 60 % ID and an uptake in intestines ([4]; 10 min p.i.) of 4.22 % ID. The uptake in kidneys ([4]; 10 min p.i.) was 2.2 % ID, the uptake in liver ([4]; 10 min p.i.) was 3.71 % ID and the “uptake in urinary bladder” value ([4]; 10 min p.i.) was 20.7 % ID. For the same molecule, the uptake in blood ([4]; 60 min p.i.) was 0.6 % ID, the uptake in bone ([4]; 60 min p.i.) was 83 % ID and 83.3 % ID and the uptake in intestines ([4]; 60 min p.i.) was 1.91 % ID. For the same molecule, the uptake in kidneys ([4]; 60 min p.i.) was 0.5 % ID, the uptake in liver ([4]; 60 min p.i.) was 0.55 % ID and the “uptake in urinary bladder” value ([4]; 60 min p.i.) was 30.6 % ID.
With `O=C1CN(Cc2ccccc2)CCN2CC(=O)[O][Al-]([18F])([O]1)[O]c1ccc([N+](=O)[O-])cc1C2` (stereo not shown) [Al^18F-L5] the “stability in PBS (in words)” value [2] was “comparable to that of Al^18F-NODA-benzyl up to 60 minutes”, the RCP ([2]; 120 min) was 78% and the RCP ([2]; 240 min) was 65%. For the same molecule, the “stability in rat serum (in words)” value [3] was “good stability in rat serum” and the RCP ([3]; 240 min) was 39%.
In the case of `O=C([O-])CN(CCN(CC(=O)[O-])Cc1cc(CCC(=O)NCCCCCC(=O)NCCCC[C@H](NC(=O)N[C@@H](CCC(=O)O)C(=O)O)C(=O)O)ccc1[O-])Cc1cc(CCC(=O)O)ccc1[O-].[68Ga+3].[OH3+]` [^68Ga-HBED-CC-PSMA], the “affinity for the PSMA receptor indicated by spleen and kidney uptake (in words)” value [5] is reported as “high affinity for the PSMA receptor”, the “in vivo stability judged from bone uptake (in words)” value [5] is reported as “high in vivo stability” and the “kidney and spleen retention when 2-PMPA was coinjected (in words)” value ([5]; 60 min p.i., 2 mg/kg 2-PMPA) is reported as “nearly completely blocked”. It also gave a retention in kidney ([5]; 60 min p.i., without 2-PMPA) of 269.90±47.23 % ID/g, a retention in spleen ([5]; 60 min p.i., without 2-PMPA) of 2.72±0.42 % ID/g and a bone uptake ([5]; tail vein, time point not stated) of 0.39±0.09 % ID/g.
With `O=C1CN2CC(=O)[O][Al-]([18F])([O]1)[O]C(=O)CN(Cc1ccccc1)C1CCCC12` (stereo not shown) [Al^18F-L31] the “% intact tracer” value ([1]; 1 h) was 0% and the “stability in PBS (in words)” value [1] was “unstable”.
For `O=C1CN2CC(=O)[O][Al-]([18F])([O]1)[O]C(=O)CN(Cc1ccccc1)c1ccccc12` [Al^18F-L32], the “% intact tracer” value ([1]; 1 h) was 0% and the “stability in PBS (in words)” value [1] was “unstable”.
With `O=C1CN2CC(=O)[O][Al-]([18F])([O]1)[O]C(=O)CN(Cc1ccccc1)[C@@H]1CCCC[C@H]12` (racemic) [Al^18F-L26] the uptake in blood ([4]; 10 min p.i.) was 2.0 % ID and 1.9 % ID, the uptake in bone ([4]; 10 min p.i.) was 1.6 % ID and the uptake in intestines ([4]; 10 min p.i.) was 19.6 % ID. The uptake in kidneys ([4]; 10 min p.i.) was 4.6 % ID, the uptake in liver ([4]; 10 min p.i.) was 49.5 % ID and the “uptake in urinary bladder” value ([4]; 10 min p.i.) was 14.3 % ID. For the same molecule, the uptake in blood ([4]; 60 min p.i.) was 0.1 % ID, the uptake in bone ([4]; 60 min p.i.) was 1.9 % ID and the uptake in intestines ([4]; 60 min p.i.) was 62.7 % ID. For the same molecule, the uptake in kidneys ([4]; 60 min p.i.) was 0.2 % ID, the uptake in liver ([4]; 60 min p.i.) was 8.8 % ID and the “uptake in urinary bladder” value ([4]; 60 min p.i.) was 21.5 % ID. For the same molecule, the “route of clearance (in words)” value ([4]; mice, 60 min p.i.) was “hepatobiliary clearance”, the “in vivo stability judged from bone uptake (in words)” value ([4]; mice, biodistribution) was “high stability” and the “stability in rat serum (in words)” value [6] was “excellent stability; also recorded: stability comparable to that of the previously reported Al^18F-NODA”. The “% intact tracer” value ([6]; 10 min) was 97.2%, the “% intact tracer” value ([6]; 30 min) was 99.0% and the “% intact tracer” value ([6]; 1 h) was 98±2.3% and 97.3%. The “% intact tracer” value ([6]; 2 h) was 86.7%, the “% intact tracer” value ([6]; 3 h) was 91.6% and the “% intact tracer” value ([6]; 4 h) was 91±2.4% and 91.2%. The “% intact tracer” value ([1]; 10 min) was 99.1%, the “% intact tracer” value ([1]; 30 min) was 98.0% and the “% intact tracer” value ([1]; 1 h) was 97.8%. The “% intact tracer” value ([1]; 2 h) was 91.0%, the “% intact tracer” value ([1]; 3 h) was 95.3% and the “% intact tracer” value ([1]; 4 h) was 87.3%. The “stability in PBS (in words)” value [1] was “excellent stability; also recorded: stability comparable to that of the previously reported Al^18F-NODA” and the “stability at different pH (in words)” value [7] was “stable for at least 60 min in the pH range from 2 to 8”.
